Source: PMC10354055, “An optimized Nurr1 agonist provides disease-modifying effects in Parkinson’s disease models” (Nature Communications, 2023)
“And” between values parts separate entries of the source, which are not always exact repeats. Equal values may be shown once.

Legend:
Nurr1-LBD = target: T1, Nurr1-LBD (Mus musculus, UniProt Q06219); experiment: Luciferase reporter assay, Nurr1-LBD, MN9D cells; type: cell-based
T1 construct: transfected with pCMV-fNurr1, pGAL-Nurr1(LBD), pGAL-Nor1(LBD) or pGAL-Nur77(LBD) and reporter construct; expressed in transfected cells; host or cells: SK-N-BE(2)C (human neuroblastoma), N27-A (rat dopaminergic), MN9D (murine dopaminergic)
T1 sequence (Q06219 360-595 limits assumed): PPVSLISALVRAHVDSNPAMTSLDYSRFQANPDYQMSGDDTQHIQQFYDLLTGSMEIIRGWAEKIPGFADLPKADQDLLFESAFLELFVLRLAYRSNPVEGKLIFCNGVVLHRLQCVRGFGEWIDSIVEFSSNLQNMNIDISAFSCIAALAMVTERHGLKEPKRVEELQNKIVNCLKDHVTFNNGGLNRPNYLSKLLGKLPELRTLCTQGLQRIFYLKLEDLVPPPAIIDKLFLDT
Text: (§1) Nurr1 transactivity was normalized to β-galactosidase activity.

MPTP-induced male mice = experiment: IHC/stereology of TH+ fibers, TH+ DA neurons and NeuN+ neurons, MPTP-induced mice; type: in vivo, mouse
Experimental: MPTP (Sigma-Aldrich) was intraperitoneally (i.p.) injected (30 mg/kg) for 5 days (Day 1-5). […] To test dyskinetic involuntary behavior, an L-DOPA injected group was included, which received 50 mg/kg of L-DOPA and 15 mg/kg of benserazide (Sigma-Aldrich) (i.p.) for 16 days (Day 1–16). All compounds were administered 6 h post-MPTP injection to avoid any effect of compounds on the MPTP metabolism in the brain. Motor and non-motor related behavior tests were performed on the following days as described in Fig. 4a in an assessor- and observer-blinded fashion. Pre-training and baseline setup for motor-related behaviors were performed 3 days prior to the injections. Mice were sacrificed and subjected to immunohistochemistry. Mice were housed at the Animal Care Facilities of McLean Hospital under a 12-h light/12-h dark cycle, ambient temperature and humidity. Animals were handled in accordance with McLean Hospital’s Institutional Animal Care and Use Committee (Protocol #: 2015N000002) and followed National Institutes of Health guidelines.
Images were acquired using a KEYENCE microscope and quantified as the number or optical density of immunoreactive cells using ImageJ software.
The numbers of TH^+ DA neurons, NeuN^+ neurons, pS129 αSyn^+ cells in the SN and Iba-1^+ microglia in the SN and striatum were stereologically counted in six coronal sections (30 µm thickness) taken every 6th section (180 µm intervals) for each brain. The boundaries of the SN and striatum were delimited at low magnification (4X) to estimate each total area. Immunoreactive cells were counted with images taken at high magnification (×40) by a single blinded investigator. The group mean of the total number of immunoreactive cells from each brain was transformed as percentage of the number in the control group (%). For AAV-αSyn-induced mice, the group mean of the total number of cells in the ipsilateral side was transformed as a percentage of that observed in the contralateral side.

[1] = test system: AAV-αSyn-induced male mice; experiment: Western blot of human-αSyn in SNpc, AAV-αSyn-injected mice; type: in vivo, mouse
Experimental: Experiments were confirmed by duplicate measurements of the same sample. Quantification of immunoreactive bands was performed using ImageJ software (NIH, Bethesda, MD, USA) and expressed as a relative ratio against β-actin.
Adeno-associated viruses (AAVs) expressing GFP only or αSyn (wild-type or A53T) were kindly provided by Dr. Yoon Seong Kim from the University of Central Florida. Recombinant AAV vectors were produced using modified pAAV-IRES-hrGFP (Agilent) to express wild-type and mutant human αSyn under control of the CMV promoter. Viral particles (AAV2) were produced at the University of Iowa Viral Vector Core according to standard operating procedures (https://medicine.uiowa.edu/vectorcore/). Male C57BL/6 mice (8-10 weeks, 25-30 g; Jackson Laboratories) were randomly assigned to 7 groups including empty vector (GFP) + VEH, wild-type αSyn (αSyn^WT) + VEH, mutant αSyn (αSyn^A53T) + VEH, αSyn^WT + CQ, αSyn^A53T + CQ, αSyn^WT + 4A7C-301 and αSyn^A53T + 4A7C-301 (n = 8 per group). AAV vectors were delivered into the substantia nigra unilaterally by stereotaxic surgery. […] CQ (40 mg/kg/day) or 4A7C-301 (5 mg/kg/day) administration was started 4 weeks after AAV vector injections and continued for […] before sacrifice at 8 weeks after surgery.

full-length Nurr1 = target: T2, full-length Nurr1 (Mus musculus, UniProt Q06219); experiment: Luciferase reporter assay, full-length Nurr1, MN9D cells; type: cell-based
T2 construct: Luciferase assays using Nurr1-LBD (c) or full-length Nurr1 (d) in SK-N-BE(2)C cells; expressed in transfected cells; host or cells: SK-N-BE(2)C (human neuroblastoma); MN9D (murine dopaminergic)
T2 sequence (Q06219 whole entry, the tested form may be a part): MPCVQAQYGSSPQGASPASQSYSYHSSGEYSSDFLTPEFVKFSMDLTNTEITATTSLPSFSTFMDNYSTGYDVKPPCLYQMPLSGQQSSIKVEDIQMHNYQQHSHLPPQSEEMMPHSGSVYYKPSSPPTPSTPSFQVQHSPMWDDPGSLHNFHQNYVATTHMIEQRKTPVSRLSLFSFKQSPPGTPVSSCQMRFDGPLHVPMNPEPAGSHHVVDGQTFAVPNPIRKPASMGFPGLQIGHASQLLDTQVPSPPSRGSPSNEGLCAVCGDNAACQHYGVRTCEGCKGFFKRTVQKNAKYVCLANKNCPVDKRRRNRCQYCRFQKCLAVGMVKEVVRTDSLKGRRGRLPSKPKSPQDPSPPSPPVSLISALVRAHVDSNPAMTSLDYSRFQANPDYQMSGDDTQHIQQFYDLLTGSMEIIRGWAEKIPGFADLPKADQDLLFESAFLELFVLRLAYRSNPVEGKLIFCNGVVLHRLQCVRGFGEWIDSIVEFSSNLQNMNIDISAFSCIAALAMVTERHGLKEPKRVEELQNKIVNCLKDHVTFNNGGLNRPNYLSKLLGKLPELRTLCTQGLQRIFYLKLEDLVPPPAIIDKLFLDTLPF
Text: as §1

Nurr1-LBD point mutants [2] = target: T3, Nurr1-LBD point mutants (Mus musculus, UniProt Q06219, A586F); experiment: Luciferase assay with point-mutants of Nurr1-LBD, SK-N-BE(2)C cells;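 also: Firefly luciferase normalized to beta-galactosidase activity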; type: cell-based; conditions: Fig. 1g, A586F
T3 construct: expressed in transfected cells; host or cells: SK-N-BE(2)C
T3 sequence (Q06219 whole entry A586F, the tested form may be a part): as the sequence (Q06219 whole entry, the tested form may be a part) above, with A586F counted along it
Experimental: as §1
(§2) Nurr1 mutants were generated using the QuikChange ǁ XL site-directed mutagenesis kit (Agilent Technologies) according to the manufacturer’s instruction. Mutagenesis reactions were carried out on the plasmid of mouse Nurr1 cloned into pcDNA3.1 backbone, and then verified by sequencing.

Nurr1-LBD point mutants [3] = target: T4, Nurr1-LBD point mutants (Mus musculus, UniProt Q06219, K590A); experiment: as above; type: cell-based; conditions: Fig. 1g, K590A
T4 construct: expressed in transfected cells; host or cells: SK-N-BE(2)C
T4 sequence (Q06219 whole entry K590A, the tested form may be a part): as the sequence (Q06219 whole entry, the tested form may be a part) above, with K590A counted along it
Experimental: as §1, §2

Nurr1-LBD point mutants [4] = target: T5, Nurr1-LBD point mutants (Mus musculus, UniProt Q06219); experiment: as above; type: cell-based; conditions: Fig. 1g, WT
T5 construct: expressed in transfected cells; host or cells: SK-N-BE(2)C
T5 sequence (Q06219 whole entry, change not shown, the tested form may be a part): as the sequence (Q06219 whole entry, the tested form may be a part) above
Experimental: as §1, §2

Nurr1-LBD point mutants [5] = target: T6, Nurr1-LBD point mutants (Mus musculus, UniProt Q06219, L593A); experiment: as above; type: cell-based; conditions: Fig. 1g, L593A
T6 construct: expressed in transfected cells; host or cells: SK-N-BE(2)C
T6 sequence (Q06219 whole entry L593A, the tested form may be a part): as the sequence (Q06219 whole entry, the tested form may be a part) above, with L593A counted along it
Experimental: as §1, §2

Nurr1-LBD point mutants [6] = target: T7, Nurr1-LBD point mutants (Mus musculus, UniProt Q06219, I573A); experiment: as above; type: cell-based; conditions: Fig. 1g, I573A
T7 construct: expressed in transfected cells; host or cells: SK-N-BE(2)C
T7 sequence (Q06219 whole entry I573A, the tested form may be a part): as the sequence (Q06219 whole entry, the tested form may be a part) above, with I573A counted along it
Experimental: as §1, §2

Question: Which “Luciferase activity (fold)” value (Nurr1-LBD; Fig. S3a, 0.001 µM) does the source give for `CCN1CCN(c2cc(N3CCN(CC)CC3)nc(NCCNc3ccnc4cc(Cl)ccc34)n2)CC1` [4A7C-301, N^1-(4,6-bis(4-ethylpiperazin-1-yl)pyrimidin-2-yl)-N^2-(7-chloroquinolin-4-yl)ethane-1,2-diamine] here?
Answer: 1.103 fold and 1.1109 fold and 1.11 fold

Question: And the “Luciferase activity (fold)” value (Nurr1-LBD; Fig. S3a, 0.01 µM)?
Answer: 2.094 fold and 2.1057 fold and 1.929 fold

Question: And the “Luciferase activity (fold)” value (Nurr1-LBD; Fig. S3a, 0.1 µM)?
Answer: 4.339 fold and 4.261 fold and 4.17 fold

Question: What about the “Luciferase activity (fold)” value (Nurr1-LBD; Fig. S3a, 1 µM) of the same compound?
Answer: 7.077 fold and 6.781 fold and 6.645 fold

Question: And the “Luciferase activity (fold)” value (Nurr1-LBD; Fig. S3a, 10 µM)?
Answer: 6.849 fold and 6.689 fold and 7.128 fold

Question: What about the “Luciferase activity (fold)” value (Nurr1-LBD; Fig. S1d, conc. 1 µM, replicates) of the same compound?
Answer: 6.4567 fold and 6.799 fold and 6.563 fold

Question: What about the “Luciferase activity (fold)” value (Nurr1-LBD; Fig. S1d, conc. 10 µM, replicates) of the same compound?
Answer: 6.943 fold and 6.5332 fold and 6.663 fold

Question: What about the “Luciferase activity (fold)” value (Nurr1-LBD; Fig. S1d, conc. 10-1 µM, replicates) of the same compound?
Answer: 3.61 fold and 3.7661 fold and 3.609 fold

Question: What about the “Luciferase activity (fold)” value (Nurr1-LBD; Fig. S1d, conc. 10-2 µM, replicates) of the same compound?
Answer: 1.993 fold and 2.235 fold and 2.074 fold

Question: And the “Luciferase activity (fold)” value (Nurr1-LBD; Fig. S1d, conc. 10-3 µM, replicates)?
Answer: 1.142 fold and 1.201 fold and 1.251 fold

Question: And the “potency to activate Nurr1 relative to CQ” value (Nurr1-LBD; MN9D cells, Supplementary Fig. 3a,b)?
Answer: approximately 50 fold

Question: And the “TH+ neurons in SNpc (% of control)” value (MPTP-induced male mice; Figure 4j, MPTP-induced mice, individual animal values)?
Answer: 63.18 % of control and 108.74 % of control and 134.92 % of control and 132.65 % of control and 112.51 % of control and 66.45 % of control and 53.87 % of control

Question: And the “NeuN+ neurons in SNpc (% of control)” value (MPTP-induced male mice; Figure 4k, MPTP-induced mice, individual animal values)?
Answer: 85.48 % of control and 97.85 % of control and 98.38 % of control and 115.18 % of control

Question: What about the “TH fiber density in STR (% of control)” value (MPTP-induced male mice; Figure 4h, MPTP-induced mice, individual animal values) of the same compound?
Answer: 116.18 % of control and 48.63 % of control and 93.47 % of control and 82.29 % of control and 106.49 % of control and 100.23 % of control and 91.26 % of control

Question: What about the “TH+ fibers in STR, TH+ DA neurons and NeuN+ neurons in SN (in words)” value (MPTP-induced male mice; compared to MPTP only group) of the same compound?
Answer: significantly retained

Question: And the “accumulation of αSyn (in words)” value [1]?
Answer: significantly diminished

Question: And the “Luciferase activity (fold)” value (full-length Nurr1; Fig. S1e, conc. 1 µM, replicates)?
Answer: 4.17 fold and 4.227 fold and 4.16 fold

Question: What about the “Luciferase activity (fold)” value (full-length Nurr1; Fig. S1e, conc. 10 µM, replicates) of the same compound?
Answer: 4.281 fold and 4.08 fold and 4.219 fold

Question: And the “Luciferase activity (fold)” value (full-length Nurr1; Fig. S1e, conc. 10-1 µM, replicates)?
Answer: 2.744 fold and 2.808 fold and 2.876 fold

Question: What about the “Luciferase activity (fold)” value (full-length Nurr1; Fig. S1e, conc. 10-2 µM, replicates) of the same compound?
Answer: 1.103 fold and 1.099 fold and 1.116 fold

Question: What about the “Luciferase activity (fold)” value (full-length Nurr1; Fig. S1e, conc. 10-3 µM, replicates) of the same compound?
Answer: 1.064 fold and 1.034 fold and 1.025 fold

Question: What about the “Luciferase activity (fold)” value (full-length Nurr1; Fig. S3b, 0.001 µM) of the same compound?
Answer: 1.073 fold and 1.1005 fold and 1.0596 fold

Question: What about the “Luciferase activity (fold)” value (full-length Nurr1; Fig. S3b, 0.01 µM) of the same compound?
Answer: 1.226 fold and 1.227 fold and 1.236 fold

Question: And the “Luciferase activity (fold)” value (full-length Nurr1; Fig. S3b, 0.1 µM)?
Answer: 2.808 fold and 2.776 fold and 2.787 fold

Question: And the “Luciferase activity (fold)” value (full-length Nurr1; Fig. S3b, 1 µM)?
Answer: 4.245 fold and 4.359 fold and 4.273 fold

Question: What about the “Luciferase activity (fold)” value (full-length Nurr1; Fig. S3b, 10 µM) of the same compound?
Answer: 4.295 fold and 4.314 fold and 4.305 fold

Question: And the “Luciferase activity (fold)” value (Nurr1-LBD point mutants [2])?
Answer: 16.9378 fold and 18.2618 fold and 17.9787 fold and 16.7737 fold

Question: And the “Luciferase activity (fold)” value (Nurr1-LBD point mutants [3])?
Answer: 9.662 fold and 10.9664 fold and 10.3366 fold and 9.703 fold

Question: What about the “Luciferase activity (fold)” value (Nurr1-LBD point mutants [4]) of the same compound?
Answer: 18.0755 fold and 17.4184 fold and 17.5507 fold and 18.6728 fold

Question: What about the “Luciferase activity (fold)” value (Nurr1-LBD point mutants [5]) of the same compound?
Answer: 5.7 fold and 5.711 fold and 5.709 fold and 5.928 fold

Question: And the “Luciferase activity (fold)” value (Nurr1-LBD point mutants [6])?
Answer: 1.906 fold and 2.068 fold and 2.015 fold and 1.962 fold
